“Also recorded” adds a separate entry of the source.
Columns and labels:
[1] = system: burn patients (deep burn of 30-50% of body surface); assay: Example 2: effect of oxandrolone on post-burn catabolism (II), first three weeks of recovery phase; type: in vivo, human
Protocol: Another study on the effect of oxandrolone on post-burn patients was carried out as follows.
The onset of the study was defined as the onset of the recovery phase (anabolic phase). The study period included the first three weeks of the recovery phase. Although somewhat arbitrary, the beginning of the recovery period was determined for all patients using the following criteria: • a. No need for life support measures, with a stable cardiopulmonary status; • b. No active infection; • c. Basal body temperature below 99.5° F.; • d. Metabolic rate at rest (indirect calorimetry) being less than 130% of normal; • e. Open wound (not counting donor sites) not exceeding 10% TBS; • f. Patient taking adequate oral diet with supplements or tube feeding and off all parenteral feeding; • g. active participation in a physical therapy program including resistance exercises especially to large muscle groups.
The patients were divided into three groups in a prospective randomized manner: • Group 1: High protein high calorie ad lib oral diet and protein supplement Met-Rx™. The supplement was given in a quantity equal to approximately one liter so that total protein intake would approximate 2 g/kg/day. • Group 2: Same as Group I with the addition of oxandrolone 10 mg orally twice a day. • Group 3: ad lib oral diet and a protein hydrolysate supplement (Ensure-HN or Sustacal). These supplements contain approximately 40-45 g/l protein, 140-150 g/l carbohydrate and 30-37 g/l fat. Daily protein intake consumed equalled 1.3-1.5 g/kg or 75% above the RDA value for healthy normals of 0.8 g/kg. This group was managed in the ten months prior to the onset of this study.
All patients were located in the burn/trauma step-down unit and then transferred to an acute rehabilitation hospital usually within the first week of onset of the recovery period. A burn nurse coordinator followed all patients at the rehabilitation hospitals. All patients were monitored until discharge but only the first three week period was used for the study period.
The following factors were checked: • a. Fatigue was measured objectively through increases in pulse of over 75% of predicted maximum (based on age) and a respiratory rate exceeding 30 breaths per minute beyond one minute after completion of the activity. • b. Muscle function was quantitated using a physical therapy index. The physical therapy program was determined for each patient by the burn therapist team based on optimum projected goals to be achieved at the three week period. Standard isokinetic and resistance exercises were used to increase strength. Ambulation, stair climbing and the stationary bike were used to increase endurance. Since the basic components of therapy programs were nearly identical between patients, an index was developed which quantitated progress of patient performance:
• c. Body weight; • d. Daily nutritional profiles; • e. Liver function
Within each group, paired data was analyzed using Dunnett's T-test comparing individual time periods. Between groups, analysis was compared by use of a nonparametric method, the Wilcoxan Signed Rank Test. Standard regression analysis was also performed. A p<0.05 was considered significant.

[2] = doses below 80 mg; cited from earlier work
[3] = system: patients with alcoholic hepatitis; conditions: dosages of up to 80 mg/day; cited from earlier work
[4] = system: pressure sores (decubitus ulcers) in a paraplegic patient; assay: Example 3: oxandrolone treatment of pressure sores (decubitus ulcers); type: in vivo, human; conditions: 20 mg per day orally, preliminary result
Text: A paraplegic patient was suffering from pressure sores (decubitus ulcers) which had been unhealed for over one year. […] Further experiments using oxandrolone for treatment of pressure sores and other wounds are planned.

[5] = in contrast to the majority of oral androgenic anabolic steroids; cited from earlier work
[6] = system: burn patients (deep burn of 30-50% of body surface); assay: Example 1: effect of oxandrolone on post-burn catabolism (I), recovery phase in burn patients; type: in vivo, human
Protocol: A study on the effect of oxandrolone on post-burn patients was performed as described below.
The patients included in this study had undergone: • a. catabolic phase until 80-90% of wound closure (4-10 weeks); • b. loss of 15-25% body weight (mostly lean body mass) during catabolic phase despite optimum nutrition;
The transition from “catabolic” to recovery “anabolic” was defined by: • a. No need for life support measures, being stable and out of the Intensive Care Unit (ICU); • b. No active infection (stress); • c. Open wound (not counting donor sites) not exceeding 10% Total Body Surface (TBS); • d. Patient taking oral diet with supplements or tube feeding (off parenteral feeding); • e. patient can actively participate in a physical therapy program with active ROM exercises accentuating the anabolic stimulus of exercise.
All patients were located in the burn step-down unit or in an acute rehabilitation hospital where daily information is retrieved from the physiatrist, nutritionist, and therapist.
The patients were divided into three groups in a prospective randomized manner: • Group 1: Standard nutritional goals as defined by the nutrition support service. • Group 2: Same as Group 1 plus 2-3 Met-Rx™ (protein supplement) per day (sufficient protein to increase daily protein intake to 2-2.2 g/kg/day). • Group 3: Same as Group 2 plus oxandrolone 20 mg orally four times daily. Measurements
The following factors were checked: • a. Subjective energy level (per Braintree study) 0-10; • b. Physical therapy index^1 (per Braintree study) 0-10: • 0 completes 25% session with fatigue • 2 completes 50% session with fatigue • 4 completes 75% session with fatigue • 6 completes 100% session with fatigue • 8 completes 100% session with no fatigue • 10 completes 100% session and more with no fatigue; • c. Weekly weight gain; • d. Daily nutritional profiles; • e. Measurement of lean body mass by bioelective impedance. ^1 assessment of muscle strength and endurance
The onset of the study was defined as the onset of the recovery phase (anabolic phase). Patients were studied for 3 weeks (from the onset of anabolism).

[7] = in vivo; cited from earlier work
[8] = Group 2: oxandrolone 10 mg orally twice a day plus Met-Rx
[9] = Group III: oxandrolone 20 mg orally four times daily plus Met-Rx, 3 weeks

C[C@]12COC(=O)C[C@@H]1CC[C@@H]1[C@@H]2CC[C@@]2(C)[C@H]1CC[C@]2(C)O [oxandrolone, 17α-methyl-17β-hydroxy-2-oxa-5α-androstan-3-one]
maintenance of weight after discontinuation ([1]; 3 of 6 patients followed for eight weeks after discontinuation of three weeks of oxandrolone): the weight remained
average time of discharge from the rehabilitation or recovery phase to home [1, 8]: 22 ± 4 days
weight gain over the three week period relative to Group 1 (Met-Rx alone) [1, 8]: double that of Group 1
weight gain relative to retrospective Group 3 (standard supplements) [1, 8]: nearly four times that of retrospective Group 3; also recorded: significantly increased
physical therapy index (muscle strength and endurance, 0-10) ([1]; Group 2: oxandrolone 10 mg orally twice a day plus Met-Rx, three weeks): performance exceeded expectations; also recorded: significantly higher than either of the other groups; also recorded: significantly increased
liver function tests / chemical abnormality ([1]; Group 2: oxandrolone 10 mg orally twice a day plus Met-Rx, one patient): transient small increase in alkaline phosphatase
hirsutism ([1]; the three women in the oxandrolone group): No hirsutism
water retention [2]: not reported to occur
safety [3]: safe
healing of pressure sores unhealed for over one year [4]: the sores began to heal
hepatic metabolism [5]: relatively little hepatic metabolism
energy level (0-10) [6, 9]: markedly improved
therapy (physical therapy index 0-10) [6, 9]: markedly improved
weight gain relative to Group I (standard nutrition) ([6]; Group III: oxandrolone 20 mg orally four times daily plus Met-Rx, 4 patients, 3 weeks): four times that of Group I
food intake ([6]; Group III: oxandrolone plus Met-Rx, compared with Group II): apparent added stimulus to food intake
lean body weight gain as share of weight gain, by bioelective impedance ([6]; combination of Met-Rx and oxandrolone): 80%
anabolic activity relative to its androgenic activity [7]: approximately 6 times
anabolic activity relative to that of methyltestosterone [7]: 6.3 times

Source: US8026274B2, “Use of oxandrolone in the treatment of burns and other wounds” (Savient Pharmaceuticals, Inc., priority 1996, dated 2011)
